Results reported in US20210009542A1 (Calico Life Sciences LLC, priority 2018, published 2021).
Read-outs that look alike come from different tables or passages of the source.

Tests used:
[1] = target: T1, His tagged PTPN2 (TC45) protein (Homo sapiens, UniProt P17706); experiment: Mobility shift assay (MSA) for potency of PTPN2 inhibitors; type: biochemical; conditions: read-out: PTPN2 MSA IC50
T1 construct: made in house
T1 sequence (P17706 with tags, fused parts or gaps isoform P17706-2): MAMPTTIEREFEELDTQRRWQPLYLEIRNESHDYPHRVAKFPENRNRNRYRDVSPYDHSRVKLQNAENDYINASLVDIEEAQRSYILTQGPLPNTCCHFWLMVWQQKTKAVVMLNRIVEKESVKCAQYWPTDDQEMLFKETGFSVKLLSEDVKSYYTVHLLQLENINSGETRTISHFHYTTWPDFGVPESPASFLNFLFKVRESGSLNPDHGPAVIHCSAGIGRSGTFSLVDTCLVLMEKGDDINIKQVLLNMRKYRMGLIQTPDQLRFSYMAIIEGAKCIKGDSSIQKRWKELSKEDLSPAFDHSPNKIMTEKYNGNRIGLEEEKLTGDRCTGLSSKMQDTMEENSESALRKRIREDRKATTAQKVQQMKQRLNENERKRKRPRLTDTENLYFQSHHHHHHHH
In short: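 IC50 values were derived from % inhibition of substrate conversion, measured by microfluidic mobility shift (ex 488/em 530) after quenching. The fluorescent phosphotyrosine insulin-receptor peptide ([…]) reacted for 10 min at room temperature with 0.5 nM His-tagged TC45 PTPN2 that had been preincubated 10 min with compound (12 points, 1:3). Buffer was HEPES pH 7.5 with EGTA, EDTA, Tween 20 and DTT.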

[2] = tested on: B16F10 mouse melanoma cells; experiment: B16F10 IFNγ-induced cellular growth inhibition assay; type: cell-based; conditions: Mus musculus, B16-F10, 33 μM compound
Description: B16F10 mouse melanoma cells (ATCC Cat ^#CRL-6475, Manassas, Va.) were seeded at a density of 500 cells per well in a 384-well clear bottom plate (Corning Cat^# 3765, Corning, N.Y.) in 25 μL total volume of DMEM+10% FBS (Sigma Cat ^#D6429 and Sigma Cat ^#F4135, St. Louis, Mo.). Cells were allowed to adhere overnight at 37° C.+5% CO2. On the following day, 12.5 μL of mouse IFNγ (RD systems Cat485-MI/CF, Minneapolis, Minn.) was added to half of the plate (columns 13-24) at a concentration of 2 ng/mL for a final assay concentration of 0.5 ng/mL of IFNγ. Media only (12.5 μL of DMEM+10% FBS) was added to the remainder of the plate (columns 1-12). Next, compounds resuspended in DMSO (Sigma Cat ^#D2650) at 100 mM were diluted in semi-log dilutions in DMSO ranging from 100 mM to 0.001 mM and DMSO only controls were included. The compound/DMSO dilutions were further diluted 1:250 in DMEM+10% FBS, and 12.5 μL of these dilutions were added in triplicates to cells of both treatment arms (with and without IFNγ). Final compound concentrations ranged from 100 μM to 0.001 μM with a final DMSO concentration of 0.1%. Compounds were only dosed in the inner 240 wells, avoiding the outer 2-well perimeter of the plate to minimize edge effects. Finally, the plate was loaded into an IncuCyte® S3 Live Cell Analysis System (Essen Bioscience-Sartorius, Ann Arbor, Mich.) maintained in a 37° C.+5% CO2 incubator, allowed to equilibrate for 2 hours, and imaged every 6 hours for 5 days. Confluence over time for compound dilutions in the presence and absence of IFNγ was measured. Growth inhibition values were obtained when the “DMSO/no IFNγ” control reached confluence >95%. At these time points, the percent growth inhibition of each compound at the indicated concentration was calculated relative to the “DMSO/with IFNγ” control.

[3] = +0.5 ng/mL IFNγ, relative to DMSO control, read-out: % B16F10 growth inhibition (+0.5 ng/mL IFNγ) @ 33 μM
[4] = no IFNγ, read-out: % B16F10 growth inhibition (no IFNγ) @ 33 μM

| Compound | IC50 [1] | inhibition at 33 µM [2, 3] | inhibition at 33 µM [2, 4] |
| --- | --- | --- | --- |
| [2H]C([2H])([2H])Oc1ccc2cc(O)c(N3CC(=O)NS3(=O)=O)c(F)c2c1 [Compound 118, 5-{1-fluoro-3-hydroxy-7-[(^2H3)methyloxy]naphthalen-2-yl}-1λ^6,2,5-thiadiazolidine-1,1,3-trione] | 1 to 10 nM | 60 to 90% | < 25% |
| COCCOc1ccc2cc(O)c(N3CC(=O)NS3(=O)=O)c(F)c2c1 [Compound 119, 5-[1-fluoro-3-hydroxy-7-(2-methoxyethoxy)naphthalen-2-yl]-1λ^6,2,5-thiadiazolidine-1,1,3-trione] | 1 to 10 nM | 60 to 90% | < 25% |
| CC(C)(C#N)CCOc1ccc2cc(O)c(N3CC(=O)NS3(=O)=O)c(F)c2c1 [Compound 120, 4-{[8-fluoro-6-hydroxy-7-(1,1,4-trioxo-1λ^6,2,5-thiadiazolidin-2-yl)naphthalen-2-yl]oxy}-2,2-dimethylbutanenitrile] | < 1 nM | 60 to 90% | < 25% |
| [2H]C1([2H])C(=O)NS(=O)(=O)N1c1c(O)cc2ccc(OC)cc2c1F [Compound 123, 5-(1-fluoro-3-hydroxy-7-methoxynaphthalen-2-yl)(4,4-^2H2)-1λ^6,2,5-thiadiazolidine-1,1,3-trione] | 1 to 10 nM | 60 to 90% | < 25% |
| O=C1CN(c2c(O)cc3ccc(NCCNS(=O)(=O)C4CC4)cc3c2F)S(=O)(=O)N1 [Compound 125, N-(2-{[8-fluoro-6-hydroxy-7-(1,1,4-trioxo-1λ^6,2,5-thiadiazolidin-2-yl)naphthalen-2-yl]amino}ethyl)cyclopropanesulfonamide] | 1 to 10 nM | 60 to 90% | < 25% |
| O=C1CN(c2c(O)cc3ccc(OCCNS(=O)(=O)C4CC4)cc3c2F)S(=O)(=O)N1 [Compound 127, N-(2-{[8-fluoro-6-hydroxy-7-(1,1,4-trioxo-1λ^6,2,5-thiadiazolidin-2-yl)naphthalen-2-yl]oxy}ethyl)cyclopropanesulfonamide] | < 1 nM | 60 to 90% | < 25% |
| CS(=O)(=O)N1CC(Nc2ccc3cc(O)c(N4CC(=O)NS4(=O)=O)c(F)c3c2)C1 [Compound 128, 5-(1-fluoro-3-hydroxy-7-{[1-(methanesulfonyl)azetidin-3-yl]amino}naphthalen-2-yl)-1λ^6,2,5-thiadiazolidine-1,1,3-trione] | 1 to 10 nM | > 90% | < 25% |
| N#CCCCOc1ccc2cc(O)c(N3CC(=O)NS3(=O)=O)c(F)c2c1 [Compound 129, 4-{[8-fluoro-6-hydroxy-7-(1,1,4-trioxo-1λ^6,2,5-thiadiazolidin-2-yl)naphthalen-2-yl]oxy}butanenitrile] | < 1 nM | > 90% | < 25% |
| N#CCC1(COc2ccc3cc(O)c(N4CC(=O)NS4(=O)=O)c(F)c3c2)CC1 [Compound 130, [1-({[8-fluoro-6-hydroxy-7-(1,1,4-trioxo-1λ^6,2,5-thiadiazolidin-2-yl)naphthalen-2-yl]oxy}methyl)cyclopropyl]acetonitrile] | < 1 nM | 60 to 90% | < 25% |
| O=C1CN(c2c(O)cc3ccc(-c4cnn(CC5CC5)c4)cc3c2F)S(=O)(=O)N1 [Compound 132, 5-{7-[1-(cyclopropylmethyl)-1H-pyrazol-4-yl]-1-fluoro-3-hydroxynaphthalen-2-yl}-1λ^6,2,5-thiadiazolidine-1,1,3-trione] | < 1 nM | 60 to 90% | < 25% |
| CP(C)(=O)c1ccc(-c2ccc3cc(O)c(N4CC(=O)NS4(=O)=O)c(F)c3c2)s1 [Compound 141, 5-{7-[5-(dimethylphosphoryl)thiophen-2-yl]-1-fluoro-3-hydroxynaphthalen-2-yl}-1λ^6,2,5-thiadiazolidine-1,1,3-trione] | < 1 nM | 60 to 90% | < 25% |
| C[C@H](O)CCOc1ccc2cc(O)c(N3CC(=O)NS3(=O)=O)c(F)c2c1 [Compound 147, 5-{1-fluoro-3-hydroxy-7-[(3S)-3-hydroxybutoxy]naphthalen-2-yl}-1λ^6,2,5-thiadiazolidine-1,1,3-trione] | < 1 nM | > 90% | < 25% |
| CCC(=O)CCOc1ccc2cc(O)c(N3CC(=O)NS3(=O)=O)c(F)c2c1 [Compound 155, 5-{1-fluoro-3-hydroxy-7-[(3-oxopentyl)oxy]naphthalen-2-yl}-1λ^6,2,5-thiadiazolidine-1,1,3-trione] | < 1 nM | 60 to 90% | 60 to 90% |
| O=C1CN(c2c(O)cc3ccc(OCCCC(F)(F)F)cc3c2F)S(=O)(=O)N1 [Compound 158, 5-[1-fluoro-3-hydroxy-7-(4,4,4-trifluorobutoxy)naphthalen-2-yl]-1λ^6,2,5-thiadiazolidine-1,1,3-trione] | 1 to 10 nM | 60 to 90% | < 25% |
| N#CC1(CCOc2ccc3cc(O)c(N4CC(=O)NS4(=O)=O)c(F)c3c2)CC1 [Compound 159, 1-(2-{[8-fluoro-6-hydroxy-7-(1,1,4-trioxo-1λ^6,2,5-thiadiazolidin-2-yl)naphthalen-2-yl]oxy}ethyl)cyclopropane-1-carbonitrile] | < 1 nM | > 90% | < 25% |
| CNCC(C)(C)CCOc1ccc2cc(O)c(N3CC(=O)NS3(=O)=O)c(F)c2c1 [Compound 163, 5-{7-[3,3-dimethyl-4-(methylamino)butoxy]-1-fluoro-3-hydroxynaphthalen-2-yl}-1λ^6,2,5-thiadiazolidine-1,1,3-trione] | < 1 nM | > 90% | < 25% |
| O=C1CN(c2c(O)cc3ccc(NCCc4ccccc4)cc3c2F)S(=O)(=O)N1 [Compound 164, 5-{1-fluoro-3-hydroxy-7-[(2-phenylethyl)amino]naphthalen-2-yl}-1λ^6,2,5-thiadiazolidine-1,1,3-trione] | < 1 nM | > 90% | < 25% |
| CC(C)(N)CCOc1ccc2cc(O)c(N3CC(=O)NS3(=O)=O)c(F)c2c1 [Compound 165, 5-[7-(3-amino-3-methylbutoxy)-1-fluoro-3-hydroxynaphthalen-2-yl]-1λ^6,2,5-thiadiazolidine-1,1,3-trione] | 1 to 10 nM | > 90% | < 25% |
| O=C1CN(c2c(O)cc3ccc(NCCCC(F)(F)F)cc3c2F)S(=O)(=O)N1 [Compound 166, 5-{1-fluoro-3-hydroxy-7-[(4,4,4-trifluorobutyl)amino]naphthalen-2-yl}-1λ^6,2,5-thiadiazolidine-1,1,3-trione] | 1 to 10 nM | > 90% | < 25% |
| O=C1CN(c2c(O)cc3ccc(C(F)F)cc3c2F)S(=O)(=O)N1 [Compound 167, 5-[7-(difluoromethyl)-1-fluoro-3-hydroxynaphthalen-2-yl]-1λ^6,2,5-thiadiazolidine-1,1,3-trione] | 10 to 100 nM | 60 to 90% | < 25% |
| CP(C)(=O)N1CC=C(c2ccc3cc(O)c(N4CC(=O)NS4(=O)=O)c(F)c3c2)C1 [Compound 168, 5-{7-[1-(dimethylphosphoryl)-2,5-dihydro-1H-pyrrol-3-yl]-1-fluoro-3-hydroxynaphthalen-2-yl}-1λ^6,2,5-thiadiazolidine-1,1,3-trione] | < 1 nM | > 90% | < 25% |
